We go through three compounds from patent US20170202844A1, “PEDIATRIC CHEWABLE TABLET CONTAINING ANTIVIRAL AGENT AND METHOD FOR THE PREPARATION THEREOF” (PHARMATHEN S.A., priority 2014, published 2017).

For data set [1] the following is noted: cited from earlier work; for oral bioavailability of acyclovir: oral administration.
Data set [2] is described as follows: Drug loading into ion exchange resin, evaluated spectrophotometrically. Format: physicochemical. As to conditions: for % w/w unbound drug: resin not named. Here is the method:
Mediums of different pH were examined in order to achieve the maximum drug loading into the resin. For this reason, the pH of solutions was adjusted at 3, 4, 5, 6, and 7. The drug loaded was evaluated spectrophotometrically. […] Buffer pH=7 enhanced more the effect of drug loading.
The next step was to examine the effect of drug loading into the resin for buffer pH=7 of different ion strength. For this reason, buffer pH=7 of normality 0.1N, 0.2N, 1N were prepared and the drug loaded was evaluated spectrophotometrically as before. Buffer pH=7 0.2N was the most suitable medium as the higher drug loading was reached. (61.60%±2.05%).
At this point of studies, the research focused on the type of IER. For this reason, resins of different functional group were examined to reach the higher drug loading. […] As a result, Purolite C100CaMR and Indion 204 were the most preferred resins that could form hydrogen bonds with the cationic center of Valaciclovir and prevent the release in saliva.

The conditions of data set [3]: cited from earlier work.

The structures appear in SMILES notation. Counter-ions that a name gives are not always drawn.

With `Nc1nc2c(ncn2COCCO)c(=O)[nH]1` [acyclovir], the “water solubility” value in data set [1] (in vivo) is “poorly water soluble”. Also, the “oral bioavailability of acyclovir” value in data set [1] is given as “poor oral bioavailability”.
Take `CC(C)[C@H](N)C(=O)OCCOCn1cnc2c(=O)[nH]c(N)nc21` [Valaciclovir hydrochloride, L-valine, 2-[(2-amino-1,6-dihydro-6-oxo-9H-purin-9-yl)methoxy] ethyl ester, mono hydrochloride]: the “absorption from the gastrointestinal tract” value in data set [1] (after oral administration) is “rapidly absorbed”. The “conversion to acyclovir and L-valine” value in data set [1] (first-pass intestinal and/or hepatic metabolism) is reported as “nearly completely converted”. Moreover, the drug loading in data set [2] (Buffer pH=7 0.2N) is listed as 61.60%±2.05%. Besides, the “% w/w unbound drug” value in data set [2] (medium pH 3) is reported as 79.85%±2.19%; in data set [2] (medium pH 4), 75.24%±2.91%; in data set [2] (medium pH 5), 66.69%±2.76%; in data set [2] (medium pH 6), 61.19%±2.61%; in data set [2] (medium pH 7), 30.91%±2.53%; in data set [2] (water), 72.61%±2.81%. Further, the “solubility in dichloromethane” value in data set [3] (dichloromethane) is recorded as “insoluble”. Moreover, the “solubility in water” value in data set [3] (water) is “soluble”.
`CC(C)[C@H](N)C(=O)OCCOCn1cnc2c(=O)[nH]c(N)nc21` [Valaciclovir, L-valyl acyclovir]: in data set [1], the “oral bioavailability of acyclovir” value was “high bioavailability of acyclovir”.
